Results published in ChEMBL document CHEMBL1150724, “In vitro antiviral activity of dammar resin triterpenoids” (J Nat Prod, 1987).
In brackets after ≈: the same amount, converted by molar mass.

How the values were obtained:
[1] = system: Human alphaherpesvirus 1; assay: Antiviral activity against HSV1 MacIntyre replication in african green monkey Vero cells assessed as inhibition of virus-induced cytopathic effect after 48 hrs; format: functional, organism-based; conditions: Human alphaherpesvirus 1, MacIntyre
[2] = system: Human alphaherpesvirus 2; assay: Antiviral activity against HSV2 MS replication infected in african green monkey Vero cells assessed as inhibition of virus-induced cytopathic effect after 48 hrs; format: functional, organism-based; conditions: Human alphaherpesvirus 2, MS

| IC50 [1] [µg/mL] | IC50 [2] [µg/mL] | Compound |
| --- | --- | --- |
| 5 (≈ 10.6 µM) | 5 (≈ 10.6 µM) | CC1(C)CC[C@@]23CC[C@]4(C)[C@@](OC2=O)([C@@H]3C1)[C@@H](O)C[C@@H]1[C@@]2(C)CCC(=O)C(C)(C)[C@@H]2CC[C@]14C |
| 2.5 (≈ 5.86 µM) | 3 (≈ 7.03 µM) | C=C(CCC=C(C)C)[C@H]1CC[C@]2(C)[C@@H]1CC[C@@H]1[C@@]3(C)CC[C@H](O)C(C)(C)[C@@H]3CC[C@]12C [DAMMARADIENOL] |
| 3 (≈ 6.54 µM) | 2 (≈ 4.36 µM) | C=C(C)[C@@H]1CC[C@]2(C)[C@H](CC[C@@H]3[C@@H]([C@@](C)(O)CCC=C(C)C)CC[C@]32C)[C@@]1(C)CCC(=O)O [DAMMARENOLIC ACID] |
| 7 (≈ 14.7 µM) | 8 (≈ 16.9 µM) | C=C(C)[C@@H]1CC[C@]2(C)[C@H](CC[C@@H]3[C@@H]([C@]4(C)CC[C@@H](C(C)(C)O)O4)CC[C@]32C)[C@@]1(C)CCC(=O)O [EICHLERIANIC ACID] |
| 7 (≈ 15.8 µM) | 5 (≈ 11.3 µM) | CC(C)(O)[C@H]1CC[C@@]2(C)C1CC[C@]1(C)[C@@H]2CC[C@@H]2[C@@]3(C)CCC(=O)C(C)(C)[C@@H]3CC[C@]21C (stereo partly drawn) [HYDROXYHOPANONE] |
| 7 (≈ 14.7 µM) | 8 (≈ 16.9 µM) | C=C(C)[C@@H]1CC[C@]2(C)[C@H](CC[C@@H]3[C@@H]([C@]4(C)CC[C@H](C(C)(C)O)O4)CC[C@]32C)[C@@]1(C)CCC(=O)O [SHOREIC ACID] |
| 2.5 (≈ 5.5 µM) | 8 (≈ 17.6 µM) | C[C@H]1[C@H](C)CC[C@]2(C(=O)O)CC[C@]3(C)C(=CC[C@@H]4[C@@]5(C)CCC(=O)C(C)(C)[C@@H]5CC[C@]43C)[C@H]12 [URSONIC ACID] |

| Compound | IC50 [1] [µg/mL] | IC50 [2] [µg/mL] |
| --- | --- | --- |
| CC(C)=CCC[C@@](C)(O)[C@H]1CC[C@]2(C)[C@@H]1CC[C@@H]1[C@@]3(C)CCC(=O)C(C)(C)[C@@H]3CC[C@]12C | 2 (≈ 4.52 µM) | 5 (≈ 11.3 µM) |
| CC(C)=CCC[C@](C)(O)[C@H]1CC[C@]2(C)[C@@H]1CC[C@@H]1[C@@]3(C)CC[C@H](O)C(C)(C)[C@@H]3CC[C@]12C | 7 (≈ 15.7 µM) | 7 (≈ 15.7 µM) |
